Laboratory results published in patent publication US9115101B2 (Genentech, Inc., priority 2012, dated 2015).

Each compound was assayed against T1, RORc ligand binding domain (Homo sapiens, UniProt P51449) (assay: In Vitro RORc Ligand Binding Assay (25-[3H]hydroxycholesterol radioligand filtration)). Details: read-out: RORc IC50.
T1 construct: host or cells: E. coli
T1 sequence (P51449 269-508 limits assumed): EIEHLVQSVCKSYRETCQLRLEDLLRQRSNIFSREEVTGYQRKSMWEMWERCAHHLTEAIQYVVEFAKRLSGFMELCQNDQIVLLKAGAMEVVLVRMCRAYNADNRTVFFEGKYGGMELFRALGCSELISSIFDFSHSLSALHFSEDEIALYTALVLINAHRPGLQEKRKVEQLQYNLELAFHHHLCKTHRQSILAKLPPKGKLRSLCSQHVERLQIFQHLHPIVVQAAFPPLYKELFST
`C[C@H]1CCC(c2ccccc2)S(=O)(=O)N1Cc1ccc(N2C[C@@H]3[C@H](C2)[C@H]3n2cnnc2)cc1F` (stereo partly drawn) [Example 440, (1R,5S,6S)-3-[3-Fluoro-4-((3S)-methyl-1,1-dioxo-6-phenyl-[1,2]thiazinan-2-ylmethyl)-phenyl]-6-[1,2,4]triazol-4-yl-3-aza-bicyclo[3.1.0]hexane] was tested, and the IC50 was 12 nM.
With `C[C@H]1CCC(c2ccccc2)S(=O)(=O)N1Cc1ccc(N2CCN(c3cnccn3)CC2)cc1F` (stereo partly drawn) [Example 441, 4-[3-Fluoro-4-((3S)-methyl-1,1-dioxo-6-phenyl-[1,2]thiazinan-2-ylmethyl)-phenyl]-3,4,5,6-tetrahydro-2H-[1,2′]bipyrazinyl] the IC50 was 171 nM.
`C[C@H]1CCC(c2ccccc2)S(=O)(=O)N1Cc1ccc(N2CCN(c3ncncn3)CC2)cc1F` (stereo partly drawn) [Example 442, 2-{4-[3-Fluoro-4-((3S)-methyl-1,1-dioxo-6-phenyl-[1,2]thiazinan-2-ylmethyl)-phenyl]-piperazin-1-yl}-[1,3,5]triazine] gave an IC50 of 37 nM.
In the case of `C[C@H]1CCC(c2ccccc2)S(=O)(=O)N1Cc1ccc(NCC2CCOCC2)cc1F` (stereo partly drawn) [Example 445, [3-Fluoro-4-((3S)-methyl-1,1-dioxo-6-phenyl-[1,2]thiazinan-2-ylmethyl)-phenyl]-(tetrahydro-pyran-4-ylmethyl)-amine], the IC50 is reported as 25 nM.
Work on `C[C@H]1CCC(c2ccccc2)S(=O)(=O)N1Cc1ccc(OC2CCNC2=O)cc1` (stereo partly drawn) [Example 446, 3-[4-((3S)-Methyl-1,1-dioxo-6-phenyl-[1,2]thiazinan-2-ylmethyl)-phenoxy]-pyrrolidin-2-one] yielded an IC50 of 1500 nM.
In the case of `C[C@H]1CCC(c2ccccc2)S(=O)(=O)N1Cc1ccc(OC2CCOC2)cc1` (stereo partly drawn) [Example 447, (3S)-Methyl-6-phenyl-2-[4-(tetrahydro-furan-3-yloxy)-benzyl]-[1,2]thiazinane 1,1-dioxide], the IC50 is reported as 268 nM.
For `C[C@H]1CCC(c2ccccc2)S(=O)(=O)N1Cc1ccc(OCC2(C)COC2)cc1` (stereo partly drawn) [Example 448, (3S)-Methyl-2-[4-(3-methyl-oxetan-3-ylmethoxy)-benzyl]-6-phenyl-[1,2]thiazinane 1,1-dioxide], the IC50 was 656 nM.
Compound `C[C@H]1CCC(c2ccccc2)S(=O)(=O)N1Cc1ccc(OC2CCC(=O)NC2)cc1` (stereo partly drawn) [Example 449, 5-[4-((3S)-Methyl-1,1-dioxo-6-phenyl-[1,2]thiazinan-2-ylmethyl)-phenoxy]-piperidin-2-one] has an IC50 of 852 nM.
Compound `CC1CN(S(C)(=O)=O)CCC1Nc1ccc(CN2[C@@H](C)CCC(c3ccccc3)S2(=O)=O)c(F)c1` (stereo partly drawn) [Example 451, [3-Fluoro-4-((3S)-methyl-1,1-dioxo-6-phenyl-[1,2]thiazinan-2-ylmethyl)-phenyl]-(1-methanesulfonyl-3-methyl-piperidin-4-yl)-amine] has an IC50 of 12 nM.
Work on `CC1CN(S(C)(=O)=O)CCC1Nc1ccc(CN2[C@@H](C)CCC(c3ccccc3)S2(=O)=O)c(F)c1` (stereo partly drawn) [Example 453, [3-Fluoro-4-((3S)-methyl-1,1-dioxo-6-phenyl-[1,2]thiazinan-2-ylmethyl)-phenyl]-(1-methanesulfonyl-3-methyl-piperidin-4-yl)-amine] yielded an IC50 of 9 nM.
`C[C@H]1CCC(c2ccccc2)S(=O)(=O)N1Cc1ccc(NC(=O)CC2CCOCC2)cc1F` (stereo partly drawn) [Example 455, N-[3-Fluoro-4-((3S)-methyl-1,1-dioxo-6-phenyl-[1,2]thiazinan-2-ylmethyl)-phenyl]-2-(tetrahydro-pyran-4-yl)-acetamide] showed an IC50 of 123 nM.
With `CCOC(=O)N1CCC(C(=O)Nc2ccc(CN3[C@@H](C)CCC(c4ccccc4)S3(=O)=O)c(F)c2)CC1` (stereo partly drawn) [Example 456, 4-[3-Fluoro-4-((3S)-methyl-1,1-dioxo-6-phenyl-[1,2]thiazinan-2-ylmethyl)-phenylcarbamoyl]-piperidine-1-carboxylic acid ethyl ester] the IC50 was 148 nM.
Compound `CC(=O)N1CCC(C(=O)Nc2ccc(CN3[C@@H](C)CCC(c4ccccc4)S3(=O)=O)c(F)c2)CC1` (stereo partly drawn) [Example 457, 1-Acetyl-piperidine-4-carboxylic acid [3-fluoro-4-((3S)-methyl-1,1-dioxo-6-phenyl-[1,2]thiazinan-2-ylmethyl)-phenyl]-amide] has an IC50 of 437 nM.
`C[C@H]1CCC(c2ccccc2)S(=O)(=O)N1Cc1ccc(NC(=O)C2CN(S(C)(=O)=O)C2)cc1F` (stereo partly drawn) [Example 458, 1-Methanesulfonyl-azetidine-3-carboxylic acid [3-fluoro-4-((3S)-methyl-1,1-dioxo-6-phenyl-[1,2]thiazinan-2-ylmethyl)-phenyl]-amide] showed an IC50 of 98 nM.
`C[C@H]1CCC(c2ccccc2)S(=O)(=O)N1Cc1ccc(NC(=O)C2CCN(S(C)(=O)=O)CC2)cc1F` (stereo partly drawn) [Example 459, 1-Methanesulfonyl-piperidine-4-carboxylic acid [3-fluoro-4-((3S)-methyl-1,1-dioxo-6-phenyl-[1,2]thiazinan-2-ylmethyl)-phenyl]-amide] showed an IC50 of 74 nM.
